Assay results: patent US3954995A, “Mono-and disubstituted hydroxyguanidines in the treatment of depression” (E. I. Du Pont de Nemours and Company, priority 1974, dated 1976)
Read-outs that look alike come from different tables or passages of the source.

Key:
[1] = tested on: tetrabenazine-induced sedation in mice; test: Antitetrabenazine test: prevention of tetrabenazine-induced sedation and depression (exploratory activity and ptosis); type: in vivo, mice (Carworth CF1 S female); settings: Mus musculus, po, 1 h
Protocol: This mouse test is predictive of human antidepressant response (Everett, G. M., "The Dopa Response Potentiation Test and Its Use in Screening for Antidepressant Drugs", pp. 164-167 in "Antidepressant Drugs", Proceedings of the First International Symposium, S. Garattini and M. N. G. Dukes, eds., 1967).
Groups of 10 Carworth CF1 S female mice, 18-21 g each, were fasted 1.5 hours and were intubated with a hydroxyguanidine as antagonist to tetrabenazine at oral doses of 5, 25 and 125 mg/kg in 0.20 ml of 1% methyl cellulose (Methocel.) Thirty minutes later the mice were challenged with tetrabenazine, 32 mg/kg intraperitoneally (dissolved in 0.20 ml of 0.05M KCl at pH 2.0). One hour after the hydroxyguanidine compound (30 minutes after tetrabenzine) the mice were examined for signs of exploratory activity and ptosis (eye-lid closure). Normal exploratory activity (relief from sedation) was recorded when a mouse lifted by the tail from a group of 10 in a testing box and placed on a stainless steel testing box lid (12.5 inch × 8 inch × 0.33 inch mesh) either turned its head horizontally 30° or moved to the edge of the screen withi 10 seconds after being placed on the screen. Relief from ptosis was recorded when exactly 2 seconds after placing the mouse facing the observer, lid closure was less than 50% in both eyes.

[2] = tested on: tetrabenazine-induced sedation in mice; test: as above; type: in vivo, mice (Carworth CF1 S female); settings: up to 81 mg/kg
[3] = tested as hydroxyguanidine HCl salt, tetrabenazine 32 mg/kg i.p., read-out: Antitetrabenazine ED 50, Exploratory
[4] = tested as hydroxyguanidine HCl salt, tetrabenazine 32 mg/kg i.p., read-out: Antitetrabenazine ED 50, Ptosis
[5] = tetrabenazine 32 mg/kg i.p. 30 min later, read 1 h after compound, read-out: Antitetrabenazine ED 50, Exploratory
[6] = tetrabenazine 32 mg/kg i.p. 30 min later, read 1 h after compound, read-out: Antitetrabenazine ED 50, Ptosis (dose which blocked ptosis in 50% of the mice)

SMILES	ED50 [1, 3] [mg/kg]	ED50 [1, 4] [mg/kg]	ED50 [1, 5] [mg/kg]	ED50 [1, 6] [mg/kg]	Activity in the antitetrabenazine screen [2]
CN(C(N)=NO)c1ccccc1 [Example 1, 1-phenyl-1-methylhydroxyguanidine]	9	1.1	> 81	1.1	
CN(Cc1ccccc1)C(N)=NO [Example 2, 1-benzyl-1-methylhydroxyguanidine]	> 81	0.43	9	0.18	
CCN(Cc1ccccc1)C(N)=NO [Example 3, 1-benzyl-1-ethylhydroxyguanidine]			9	0.39	
COc1ccc(CN(C)C(N)=NO)cc1 [Example 4, 1-p-methoxybenzyl-1-methylhydroxyguanidine]			> 81	59	
CN(Cc1ccc(F)cc1)C(N)=NO [Example 5, 1-p-fluorobenzyl-1-methylhydroxyguanidine]			> 81	8.1	
CN(Cc1ccc(Br)cc1)C(N)=NO [Example 6, 1-p-bromobenzyl-1-methylhydroxyguanidine]			> 81	17.4	
Cc1ccc(CN(C)C(N)=NO)cc1 [Example 7, 1-p-methylbenzyl-1-methylhydroxyguanidine]			> 81	23	
CN(Cc1ccc([N+](=O)[O-])cc1)C(N)=NO [Example 8, 1-p-nitrobenzyl-1-methylhydroxyguanidine]			> 81	47	
CN(Cc1ccc(Cl)c(Cl)c1)C(N)=NO [Example 9, 1-(3,4-dichlorobenzyl)-1-methylhydroxyguanidine]			> 81	4.8	
CN(Cc1ccc(Cl)cc1)C(N)=NO [Example 10, 1-p-chlorobenzyl-1-methylhydroxyguanidine]			> 81	10.8	
CN(C(N)=NO)c1ccc(Cl)cc1 [Example 11, 1-p-chlorophenyl-1-methylhydroxyguanidine]			81	0.82	
CCN(C(N)=NO)c1ccccc1 [Example 12, 1-phenyl-1-ethylhydroxyguanidine]			15.6	3	
Cc1ccc(N(C)C(N)=NO)cc1 [Example 13, 1-p-tolyl-1-methylhydroxyguanidine]			3	0.88	
COc1ccc(N(C)C(N)=NO)cc1 [Example 14, 1-p-methoxyphenyl-1-methylhydroxyguanidine]			> 81	20.5	
CCCN(C(N)=NO)c1ccccc1 [Example 17, 1-phenyl-1-n-propylhydroxyguanidine]			> 81	20	
CN(C(N)=NO)C1CCCCC1 [Example 18, 1-cyclohexyl-1-methylhydroxyguanidine]			> 81	9	
NC(=NO)NCc1ccccc1 [Example 19, 1-benzylhydroxyguanidine]	> 81	12.5			
CN(Cc1cccc(Cl)c1)C(N)=NO [Example 20, 1-m-chlorobenzyl-1-methylhydroxyguanidine]			> 81	0.4	
CN(Cc1cccc([N+](=O)[O-])c1)C(N)=NO [Example 21, 1-m-nitrobenzyl-1-methylhydroxyguanidine]			> 81	66	
CN(C(N)=NO)c1cccc(Cl)c1 [Example 22, 1-m-chlorophenyl-1-methylhydroxyguanidine]			> 81	0.7	
Cc1ccc(N(C)C(N)=NO)cc1C [Example 23, 1-(3,4-xylyl)-1-methylhydroxyguanidine]			> 81	4.9	
Cc1cccc(N(C)C(N)=NO)c1 [Example 24, 1-m-tolyl-1-methylhydroxyguanidine]				0.4	
CN(C(N)=NO)C1CCCC1 [Example 25, 1-cyclopentyl-1-methylhydroxyguanidine]	> 81	3			
CNC(=NO)Nc1ccccc1 [Example 26, 1-Phenyl-3-methyl-2-hydroxyguanidine]			> 81	12.2	
CNC(=NO)NCc1ccccc1 [Example 27, 1-Benzyl-3-methyl-2-hydroxyguanidine]					inactive
